{"source": "patent US8524661B2", "about": "“Inhibiting serum response factor (SRF) to improve glycemic control” (Joslin Diabetes Center, Inc., priority 2008, dated 2013)", "key": {"[1]": {"system": "SRF transcriptional activity", "assay": "SRF transcriptional activity, 4x CArG (SRE) promoter luciferase reporter in C2C12 cells", "type": "cell-based", "description": "To determine whether SRF transcriptional activity is also changed in insulin resistance, 4× tandem repeat of SRF binding element (SRE) CArG boxes (Kuwahara et al., Mol. Cell Biol. 25:3173-3181 (2005)) promoters linked to a luciferase gene were used as a reporter."}, "p42/44 ERK": {"system": "p42/44 ERK", "assay": "ERK phosphorylation in C2C12 myotubes (phosphoimmunoblot)", "type": "cell-based", "conditions": "overnight 1 μM CCG-1423, FIG. 11C", "protocol": "(§1) In parallel, CCG-1423 enhanced insulin action in C2C12 myotubes. Overnight treatment with 1 μM CCG-1423 increased insulin-stimulated Akt phosphorylation, both in the presence and absence of dexamethasone (41% for both, p=0.01 and p=0.007, respectively), while having no effect on p42/44 ERK phosphorylation (FIG. 11C)."}, "L6 myotubes": {"system": "L6 myotubes", "assay": "2-deoxyglucose uptake in L6 myotubes", "type": "cell-based", "conditions": "CCG-1423 1 uM, 16 hours, FIG. 11E", "protocol": "FIG. 11E is a line graph showing that both basal and insulin-stimulated 2-deoxyglucose uptake are increased by >4-fold in L6 myotubes following CCG-1423, with enhanced insulin sensitivity (1 uM, 16 hours). * indicates p<0.05, **p<0.01, ***p<0.001."}, "MKL1": {"system": "MKL1", "assay": "MKL1 cellular localization in C2C12 myoblasts", "type": "cell-based"}, "C2C12 myotubes": {"system": "C2C12 myotubes", "assay": "Deoxyglucose uptake in cultured (C2C12) myotubes", "type": "cell-based", "conditions": "FIG. 11E", "source_text": "(§2) siRNA was used to specifically reduce MKL1 expression, achieving an effective knockdown of about 60%. This increased insulin-stimulated phosphorylation of Akt (Ser473), expressed relative to total Akt protein content, by 2-fold (p<0.01). […] Thus, siRNA-mediated reduction in MKL1 expression enhances both basal and insulin-stimulated glucose uptake in cultured myotubes.\n(§3) Since CCG-1423 increased insulin signalling in myotubes, we hypothesized that CCG-1423 might also enhance glucose uptake. In DMSO (vehicle)-treated myotubes, insulin stimulated a 2-fold increase in deoxyglucose uptake in a dose-dependent manner, consistent with prior reports and the low insulin responsiveness in cultured myotubes (FIG. 11E). […] In parallel, expression of the dominant glucose transporters GLUT4 and GLUT1 was increased by CCG-1423 treatment by 4.1 and 2.5 fold, respectively (p<0.004)."}, "Akt": {"system": "Akt", "assay": "Akt phosphorylation in myotubes (phosphoimmunoblot)", "type": "cell-based", "conditions": "for increase of insulin-stimulated Akt phosphorylation: C2C12 myotubes", "protocol": "as §2\nThe next experiments were performed to determine whether SRF transcriptional activity, rather than expression of SRF itself, is important for maintaining appropriate insulin sensitivity. A new compound, CCG-1423, is available for specifically inhibiting SRF transcriptional activity (Evelyn et al., Mol. Cancer. Ther. 6:2249-2260 (2007)). […] CCG-1423 was then evaluated to test the possibility that reducing SRF transcriptional activity improves insulin sensitivity. Indeed, this is the case. A dramatic improvement in insulin sensitivity resulted from treatment with CCG-1423 in dexamethasone-induced insulin resistant myotubes, as CCG-1423 increased insulin-simulated Akt phosphorylation (a marker of insulin sensitivity) (FIG. 11A).\nas §1"}, "human myotubes": {"system": "human myotubes", "assay": "Basal glucose uptake in human myotubes from control and diabetic subjects", "type": "cell-based", "protocol": "The effects of CCG-1423 on human myotubes, and whether these effects would differ in myotubes derived from controls (n=2) vs. diabetic subjects (n=6), were also evaluated. […] The differential responsiveness in subjects with DM supports the concept that SRF pathways are more robustly activated in humans with insulin resistance and DM, and therefore potentially more sensitive to SRF inhibition."}, "GLUT4": {"system": "GLUT4", "assay": "GLUT4 expression in myotubes", "type": "cell-based", "conditions": "CCG-1423 treatment, p<0.004", "source_text": "as §3"}, "GLUT1": {"system": "GLUT1", "assay": "GLUT1 expression in myotubes", "type": "cell-based", "conditions": "CCG-1423 treatment, p<0.004", "source_text": "as §3"}, "[2]": {"system": "SRF target gene expression", "assay": "SRF target gene expression in CCG-1423 treated cells", "type": "cell-based", "conditions": "basal or insulin stimulated state", "source_text": "(§4) The molecular mechanism of the ability of CCG-1423 to reverse insulin resistance was further explored. The insulin—insulin receptor (1R)—insulin receptor substrate (IRS-1) pathway is the dominant up-stream signalling activator of Akt."}, "IRS-1": {"system": "IRS-1", "assay": "IR / IRS-1 tyrosine phosphorylation and p85 PI 3-kinase association in myotubes", "type": "cell-based", "source_text": "FIG. 11D is a phosphoimmunoblot showing that CCG-1423 increases basal and insulin-stimulated tyrosine phosphorylation of IRS-1 and its association with p85-PI 3-kinase, in both control and DEX-treated myotubes. * indicates p<0.05, **p<0.01, ***p<0.001.\nas §4, §1"}, "[3]": {"system": "mice with diet-induced obesity", "assay": "CCG-1423 treatment of mice with diet-induced obesity (HFD)", "type": "in vivo", "protocol": "To examine the therapeutic potential of this SRF inhibitor in vivo, we assessed responses to CCG-1423 treatment in mice with diet-induced obesity. […] The HFD mice were administered CCG-1423 (0.15 mg/kg body weight intraperitoneally) for two weeks.\nIn parallel, the high insulin levels associated with insulin resistance were normalized by CCG-1423 treatment (FIG. 13C)."}, "[4]": {"system": "MKL1-dependent and -independent SRF pathways", "assay": "Gene set enrichment of SRF pathways in C2C12 myotubes", "type": "cell-based", "conditions": "compared with control BSA treated cells"}, "SRF": {"system": "SRF", "assay": "Low density DNA binding arrays, SRF DNA binding activity", "type": "cell-based", "conditions": "C2C12 myotubes", "protocol": "To explore the above possibility, DNA binding activity of SRF and it co-factor ELK1 to the target gene promoter was first evaluated. To this end, electrophoretic mobility shift assays (EMSA) were performed. […] In support to this idea, in low density DNA binding arrays, SRF DNA binding activity was dramatically (5-10 fold, respectively) increased in primary myotubes from insulin resistant human and free fatty acid (FFA)-treated C2C12 myotubes compared to control."}, "STARS": {"system": "STARS", "assay": "STARS expression in C2C12 myotubes after actin disruption", "type": "cell-based", "conditions": "p<0.03, not shown", "source_text": "Additional pathway analysis using MAPPFinder confirmed that serum response factor (SRF)-dependent and actin-related cytoskeleton gene expression is increased in diabetes, and more importantly, also in insulin resistance. The top-ranking single gene differentially expressed in skeletal muscle in the fasting state is the Actin-binding Rho activating protein (ABRA), or STARS, increased by 2.5 fold in individuals with type 2 diabetes (p<0.01). This gene regulates intracellular actin dynamics and subcellular localization of MKL1/2, thus contributing to SRF-dependent gene transcription. Since disruption of actin by latrunculin B increases STARS expression in C2C12 cells by 50% in C2C12 myotubes (p<0.03, not shown), it was hypothesize that increased STARS expression in DM may reflect disruption of actin dynamics and also contribute to the pattern of increased SRF-related gene expression. Similar patterns of SRF-dependent expression are also observed in adipose tissue from insulin resistant subjects and in insulin resistant muscle."}}, "note": "“Also recorded” adds a separate entry of the source.", "data": [{"smiles": "CC(ONC(=O)c1cc(C(F)(F)F)cc(C(F)(F)F)c1)C(=O)Nc1ccc(Cl)cc1", "note": "(stereo not shown) [CCG-1423]", "values": [{"measurement": "SRF-mediated transcriptional activity (4x CArG / SRE promoter activity)", "setting": "[1]; C2C12 myoblasts, serum (FBS 2 hours) or dexamethasone stimulation, CCG-1423 1 uM, 16 hours pre-treatment, FIG. 11B", "value": "efficiently blocked"}, {"measurement": "SRF transcriptional activity induced by serum, dexamethasone, and insulin", "setting": "[1]; C2C12 myotubes, FIG. 10", "value": "specifically block; also recorded: inhibits"}, {"measurement": "p42/44 ERK phosphorylation", "setting": "p42/44 ERK", "value": "no effect; also recorded: minimal change"}, {"measurement": "basal and insulin-stimulated 2-deoxyglucose uptake increase", "setting": "L6 myotubes", "value": "> 4", "unit": "fold"}, {"measurement": "MKL1 localization", "setting": "MKL1; compound alone", "value": "almost exclusively localized to the cytoplasm"}, {"measurement": "MKL1 localization, effect on dexamethasone-induced nuclear localization", "setting": "MKL1; with dexamethasone", "value": "reversed dexamethasone-induced MKL1 nuclear localization to partial cytoplasmic localization"}, {"measurement": "insulin-stimulated deoxyglucose uptake response", "setting": "C2C12 myotubes; myotubes incubated with CCG-1423, 1 uM insulin", "value": 11.5, "unit": "fold"}, {"measurement": "glucose uptake increase in the basal state", "setting": "C2C12 myotubes; myotubes incubated with CCG-1423", "value": 4, "unit": "fold"}, {"measurement": "increase of insulin-stimulated Akt phosphorylation", "setting": "Akt; overnight 1 μM CCG-1423, absence of dexamethasone, p=0.007", "value": 41, "unit": "%"}, {"measurement": "increase of insulin-stimulated Akt phosphorylation", "setting": "Akt; overnight 1 μM CCG-1423, presence of dexamethasone, p=0.01", "value": 41, "unit": "%"}, {"measurement": "insulin-stimulated Akt phosphorylation (marker of insulin sensitivity)", "setting": "Akt; dexamethasone-induced insulin resistant myotubes, FIG. 11A", "value": "increased; also recorded: improves"}, {"measurement": "insulin-stimulated Akt phosphorylation", "setting": "Akt; insulin 100 nM, 10 minutes, FIG. 11C", "value": "increases"}, {"measurement": "basal increase in glucose uptake (mean)", "setting": "human myotubes; myotubes from control subjects (n=2)", "value": 1.2, "unit": "fold"}, {"measurement": "basal increase in glucose uptake (mean)", "setting": "human myotubes; myotubes from diabetic subjects (n=6)", "value": 3.2, "unit": "fold"}, {"measurement": "GLUT4 expression increase", "setting": "GLUT4", "value": 4.1, "unit": "fold"}, {"measurement": "GLUT1 expression increase", "setting": "GLUT1", "value": 2.5, "unit": "fold"}, {"measurement": "SRF target gene expression", "setting": "[2]", "value": "does not induces"}, {"measurement": "p85 expression", "setting": "IRS-1; C2C12 myotubes", "value": "without altering"}, {"measurement": "basal and insulin-stimulated tyrosine phosphorylation of IRS-1 and its association with p85 PI 3-kinase", "setting": "IRS-1; control and DEX-treated myotubes, FIG. 11D", "value": "increases"}, {"measurement": "phosphorylation of IR and IRS-1 protein", "setting": "IRS-1; with insulin stimulation", "value": "massive phosphorylation"}, {"measurement": "serum insulin levels during glucose tolerance test", "setting": "[3]; 15 minutes after glucose injection, HFD+CCG vs vehicle-treated HFD, FIG. 13C", "value": "normalized; also recorded: significantly reduced"}, {"measurement": "expression of SRF or ELK1", "setting": "[3]; HFD mice, 0.15 mg/kg intraperitoneally, two weeks", "value": "did not alter"}, {"measurement": "expression of SRF targets in skeletal muscle, e.g., ZYX and PDLIM7", "setting": "[3]; HFD mice, 0.15 mg/kg intraperitoneally, two weeks, vs vehicle-injected controls", "value": "significantly decreased"}, {"measurement": "food intake", "setting": "[3]; HFD mice, 0.15 mg/kg intraperitoneally, two weeks, vs vehicle-treated HFD mice", "value": "No significant change"}, {"measurement": "body weight", "setting": "[3]; HFD mice, 0.15 mg/kg intraperitoneally, two weeks, vs vehicle-treated HFD mice, FIG. 12, 0.15 mg/kg", "value": "No significant change; also recorded: not altered"}, {"measurement": "glucose tolerance test area under the curve (AUC)", "setting": "[3]; HFD+CCG vs vehicle-treated HFD animals, FIG. 13B, p<0.006", "value": "significantly reduced"}, {"measurement": "adiponectin levels", "setting": "[3]; HFD-fed mice", "value": "No differences"}, {"measurement": "circulating fatty acid levels", "setting": "[3]; HFD-fed mice", "value": "No differences"}, {"measurement": "insulin tolerance testing", "setting": "[3]; HFD-fed mice", "value": "No differences"}, {"measurement": "in vivo glucose tolerance (intra peritoneal glucose tolerance test)", "setting": "[3]; HFD-fed mice vs HFD-fed vehicle-treated controls, FIG. 13A", "value": "significantly improved; also recorded: improves"}]}, {"smiles": "CCCCCCCCCCCCCCCC(=O)O", "note": "[FFA]", "values": [{"measurement": "SRF transcriptional activity at basal level", "setting": "[1]; C2C12 myotubes, experimentally induced insulin resistance, FIG. 4", "value": "dramatically increased"}, {"measurement": "enrichment of MKL1-dependent and -independent SRF pathways", "setting": "[4]", "value": "significant enrichment"}, {"measurement": "increase of SRF DNA binding activity compared to control", "setting": "SRF", "value": "5-10 fold"}]}, {"smiles": "C/C1=C/C(=O)O[C@@H]2C[C@@H](CC[C@H](C)/C=C\\CC1)O[C@@](O)([C@@H]1CSC(=O)N1)C2", "note": "[latrunculin B]", "values": [{"measurement": "increase of STARS expression", "setting": "STARS", "value": 50, "unit": "%"}]}]}
